These results are taken from patent US20050075345A1, “Novel inhibitor compounds specific of secreted non-pancreatic human a2phospholipase of group II” (Yang Ji Chemical Company Ltd., priority 2001, published 2005).

In experiment [1] the test system is ear edema induced by croton oil. Description: Croton oil-induced ear edema test, local anti-inflammatory effect. The format is in vivo, male ICR mice. To be noted: mice, topical, 5 hours. As to the method: A-2: As animals, male ICR mice weighing 25 g were used.
A-4: To evaluate the in vivo anti-inflammatory effect of the inventive PMS compounds as listed above, the ear edema test was used as an acute inflammatory experimental model.
After inducing edema on one ear of mice by the application of croton oil, the sample of each of the PMS compounds as described above was dissolved in 80% chloroform. […] The other ear was applied only with the solvent, i.e., 80% chloroform.
After 5 hours of the initiation of the experiment, the ear tissue at the level of edema was collected by a gimlet from the skin, and the tissue collected was compared with one collected from the control part of the ear by a gimlet, to calculate the percent inhibition.
A-5: To calculate the statistical significance, the results obtained in each of the […] and the […] were evaluated by Student's t-test.

The target in experiment [2] is T1, human recombinant PLA2 (group II) (Homo sapiens, UniProt P14555).
T1 sequence (P14555 21-144): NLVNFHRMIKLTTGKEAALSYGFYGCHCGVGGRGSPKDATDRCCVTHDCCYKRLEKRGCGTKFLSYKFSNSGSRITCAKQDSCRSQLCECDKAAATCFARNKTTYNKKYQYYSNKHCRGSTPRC
Description: Fluorometric anti-PLA2 assay, human recombinant PLA2 (group II). The format is biochemical. The settings on record: measured for fluorescence with human recombinant PLA2 (group II); read-out: Anti-PLA2 activity IC50 HPLA2. Here is the method: (§1) Phospholipase A2 hydrolyzes an ester linkage at the sn-2 position of glycerophospholipid and liberates fatty acids and lysophospholipids. The in vitro action of particular compounds was evaluated by the analysis of fatty acids according to the fluorometric method described in Radvanyi et al., Anal. Biochem. 1989, 177. 103-109, and by the analysis of lysophospholipids according to the UV spectrophotometric method described in Reynolds et al., Anal. Biochem. 1992, 204, 190-197.
(§2) Enzymes used were two secretory enzymes of group II (human recombinant PLA2, and PLA2 basic subunit isolated from Crotalus durissus terrificus), and a secretory enzyme of porcine pancreatic (group I) PLA2.
(§3) Regarding substrates, palmitoyl-2-(10-pyrenyl decanoyl)-sn-glycero-3-phosphatidylglycerolic acid as a fluorescent substrate was used in the fluorometric method, and the lithium salt of 1,2-bis-(dihexanylthio)-dideoxy-rac-glycero-3-phosphorylglycerol was used in the UV spectrophotometric method.
(§4) The fluorometric analysis was performed using a Perkin Elmer LS50 luminescence spectrometer in a unit dosage polystyrene cell having a size of 1 cm. The exact concentration of the fluorescent substrate was determined by UV Unicam spectrometry in a quartz cell.
(§5) PLA2 is an enzyme that hydrolyzes an ester linkage at the sn-2 position of phospholipid. […] After hydrolysis with the enzyme, fluorescence emitted by the liberated fatty acid (pyrenyl decanoic acid) complex with bovine serum albumin (BSA) is increased, and strong fluorescence emission is observed at 378 and 398 nm. The principle of the analysis is to measure a difference in fluorescence at 398 nm in order to examine the production of fatty acids liberated for a given period of time, thus determining the PLA2 activity.
(§6) Measurement of the enzymatic activity was performed in a cell containing: 960 μl of Tris buffer; 50 mM HCl (pH 7.5); 0.5 M NaCl, 1 mM EGTA; and 1 μl substrate. This mixture was stirred under reflux for one minute to permit the formation of vesicles of substrate, and then, 10 μl of 10% SAB, 10 μl of solvent (ethanol or DMSO) or inhibitor solution, 10 μl of PLA2 to a given concentration and finally 10 μl of 1 M calcium chloride (CaCl2) for initiating the activity were successively added to the mixture under stirring.
(§7) Good conditions of measurement of the enzymatic activity include saturation of the enzyme, and thus, initial concentrations used are as follows: (i) human recombinant PLA2: 0.1 μl/ml; (ii) porcine pancreatic PLA2: 0.6 μl/ml; and (iii) Crotalus durissus terrificus (CB) PLA2: 0.05 μl/ml. Mother solution containing the inhibitor was prepared at an initial concentration of 10^−2 M.
(§8) The enzymatic activity is shown by a curve of which the original slope permits to calculate the initial velocity of the reaction. The following equation permits to calculate the enzymatic activity (A; μmol) of fatty acids liberated per minute. In the equation, S0 represents the slope of a curve in the absence of calcium (control), S the slope in the presence of calcium, V the volume (μl) of the substrate solution, and Fmax the signal of maximum fluorescence obtained at the end of the enzymatic reaction: [formula]
(§9) The residual activity in the presence of an inhibitor was evaluated by slopes obtained in the absence and presence of an inhibitor, according to the following equation: Residual activity (%)=(S−S0) in the presence of inhibitor/(S−S0) in the absence of inhibitor
(§10) Values obtained as a logarithmic function of the inhibitor concentrations used permit to determine the IC50 value, i.e., the inhibitor concentration required to cause 50% reduction of the enzymatic activity. The lower the IC50 value, the higher the inhibitory activity of a compound tested.

In experiment [3] the test system is PLA2 of Crotalus durissus terrificus (group II). Description: Fluorometric anti-PLA2 assay, Crotalus durissus terrificus PLA2 (CB). To be noted: fluorometric method, read-out: Anti-PLA2 activity IC50 CB Fluo. The format is biochemical. Here is the method: as §1, §2, §3, §4
PLA2 is an enzyme that hydrolyzes an ester linkage at the sn-2 position of phospholipid. […] After hydrolysis with the enzyme, fluorescence emitted by the liberated fatty acid (pyrenyl decanoic acid) complex with bovine serum albumin (BSA) is increased, and strong fluorescence emission is observed at 378 and 398 nm. The principle of the analysis is to measure a difference in fluorescence at 398 nm in order to examine the production of fatty acids liberated for a given period of time, thus determining the PLA2 activity. […]
The residual activity in the presence of an inhibitor was evaluated by slopes obtained in the absence and presence of an inhibitor, according to the following equation: Residual activity (%)=(S−S0) in the presence of inhibitor/(S−S0) in the absence of inhibitor […]

For experiment [4] the test system is unchanged. Description: UV spectrophotometric anti-PLA2 assay, Crotalus durissus terrificus PLA2 (CB). To be noted: UV spectrophotometric method, read-out: Anti-PLA2 activity IC50 CB Spectro. The format is biochemical. As to the method: as §1, §2, §3
The UV spectrophotometric analysis was performed on an ELx 808 Ultra Micro Plate Reader apparatus (96-well plate).
Lysothiophospholipid (LTPL) liberated by the lypolytic action of PLA2 in the presence of calcium reacts with dithionitrobenzoic acid (DTNB) present in medium to form an LTPL-TNB complex and an TNB-anion which induces the yellowing of reaction medium.
The measurement of enzymatic activity is performed in a multiple well plate of which each well contains 190 μl of 1× buffer, 2 μl of 10 mM DTNB, […] of 20 mM substrate, 2 μl of solvent or inhibitor solution, and 2 μl of PLA2 at a given concentration. The plate was stirred and 2 μl of 1 M calcium chloride was added to initiate the enzymatic reaction. Substrate was used at a lower concentration than micellar critical concentration (about 1 mM) in a monomeric form, and the ratio of substrate to enzyme was respected. […]
(§11) Good conditions of measurement include saturation of enzyme. […] It calculated directly the initial velocity of the reaction. […]
(§12) 15 readings for each well (3 wells per concentration) were performed at intervals of 3 seconds.

The target of experiment [5] is T2, porcine pancreatic PLA2 (group I) (Sus scrofa, UniProt P00592). Description: Fluorometric anti-PLA2 assay, porcine pancreatic PLA2 (group I). The format is biochemical. The settings on record: measured for fluorescence with porcine pancreatic PLA2 (group I); read-out: Anti-PLA2 activity IC50 PPLA2. Here is the method:
as §1, §2, §3, §4, §5, §6, §7, §8, §9, §10

For experiment [6], the target named is T2, porcine pancreatic PLA2 (group I). Description: UV spectrophotometric anti-PLA2 assay, porcine pancreatic PLA2 (group I). The settings on record: UV spectrophotometric method, read-out: Anti-PLA2 activity IC50 PPLA2 spectro. The format is biochemical. As to the method:
as §1, §2, §3
The UV spectrophotometric analysis was performed on an ELx 808 Ultra Micro Plate Reader apparatus (96-well plate). […]
as §11, §12

Experiment [7] deals with carrageenan-induced edema. Description: Carrageenan-induced edema test in rats. The format is in vivo. The settings on record: dose of 10 mg/kg. Here is the method: An in vivo activity assay was performed by a carrageenan-induced edema test in rats.
In the experimental protocol conducted, indomethacin as the reference product, or the compound No. 5, was administered intraperitoneally or orally at one hour before the injection of carrageenan into the hind leg of the rats. The volume of edema was measured at 0, 3 and 5 hours after the injection of carrageenan. The doses used were 5, 10 and 20 mg/kg for the two products tested.
On the technique in general: Carrageenan injected into the paw causes an acute inflammation.

T2 sequence (P00592 23-146): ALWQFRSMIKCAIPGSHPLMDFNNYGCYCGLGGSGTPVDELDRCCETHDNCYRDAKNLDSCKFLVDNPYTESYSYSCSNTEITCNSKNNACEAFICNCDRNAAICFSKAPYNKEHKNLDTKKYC

Consider “1-[4′-(4,5-dihydro-1,2,4(4H)-5-oxo-oxadiazol-3-ylmethyl)benzoyl]-4-dodecylpiperazine [PMS 1314]”, for which the “Edema inhibition (%)” value in experiment [1] (1 mg/ear) amounted to 28.5 ± 6.85%.

Usually IC50 stands for the concentration needed to halve the response being measured. For “1-[4′-(4,5-dihydro-1,2,4(4H)-5-oxo-oxadiazol-3-ylmethyl)benzyl]-4-tetradecylpiperazine [Compound 2]”, in experiment [2], the IC50 is above 10 µM. For the same compound, the “Edema inhibition (%)” value in experiment [1] (1 mg/ear, listed as PMS 1227) came out at 51.45 ± 11.67%.

Turning to “1-[4′-(4,5-dihydro-1,2,4(4H)-5-oxo-oxadiazol-3-ylmethyl)benzyl]-4-tetradecylpiperazine [PMS 1281]”, the “Edema inhibition (%)” value in experiment [1] (1 mg/ear) is reported as 47.83 ± 12.34%.

With `CCCCCCCCCCCCCCCCCCN1CCN(C(=O)c2ccc(Cc3noc(=O)[nH]3)cc2)CC1` [Compound 6, 1-[4′-(4,5-dihydro-1,2,4(4H)-5-oxo-oxadiazol-3-ylmethyl)benzoyl]-4-octadecylpiperazine], the results for the IC50 in experiment [2], in experiment [3] and in experiment [4] were 0.8 µM, 1.5 µM and 2 µM, respectively.

On to `CCCCCCCCCCCCCCCCCCN1CCN(c2ccc(Cc3noc(=O)[nH]3)cc2)CC1` [Compound 10, 1-[4′-(4,5-dihydro-1,2,4(4H)-5-oxo-oxadiazol-3-ylmethyl)phenyl]-4-octadecylpiperazine], for which the IC50 in experiment [2] is 2.71 µM; in experiment [5] it was above 100 µM.

For the compound `CCCCCCCCCCCCN1CC(C)N(C(=O)c2ccc(Cc3noc(=O)[nH]3)cc2)CC1C` (centres unmarked) [Compound 13, 1-[4′-(4,5-dihydro-1,2,4(4H)-5-oxo-oxadiazol-3-ylmethyl)benzoyl]-2,5-dimethyl-4-dodecylpiperazine], in experiment [5], the IC50 is above 100 µM. Moreover, the “Edema inhibition (%)” value in experiment [1] (1 mg/ear) is given as 62.79 ± 3.23%.

In the case of `CCCCCCCCCCCCCCCCCCN1CCN(C(=O)c2ccc(C=C3SC(=O)NC3=O)cc2)CC1` [Compound 14, [4-(4′-octadecylpiperazine-1′-ylcarbonyl)benzylidene]-1,3-thiazolidine-2,4-dione], the IC50 in experiment [2] was 0.28 µM; in experiment [3], 0.4 µM; in experiment [5], 10 µM; in experiment [4], 0.4 µM; in experiment [6] it was above 100 µM.

For `CCCCCCCCCCCCCCCCCCN1CCN(C(=O)c2ccc(CC3SC(=O)NC3=O)cc2)CC1` (centres unmarked) [Compound 15, 1-[4′-(2,4-dioxo-1,3-thiazolidin-5-ylmethyl)benzoyl]-4-octadecylpiperazine], the IC50 in experiment [2] is 1 µM; in experiment [3] it was 1.4 µM; in experiment [5] it was above 100 µM; in experiment [4] it was 2 µM.

For the compound `CCCCCCCCCCCCCCN1CCN(Cc2ccc(Cc3noc(=O)[nH]3)cc2)C(=O)C1` [Example 7, 1-[4′-(4,5-dihydro-1,2,4(4H)-5-oxo-oxadiazol-3-ylmethyl)benzyl]-4-tetradecylpiperazin-2-one], the IC50 was 30 µM in experiment [2] and above 100 µM in experiment [5].

Regarding `CCCCCCCCCCCCCCN1CCN(C(=O)c2ccc(Cc3noc(=O)[nH]3)cc2)CC1` [Example 8, 1-[4′-(4,5-dihydro-1,2,4(4H)-5-oxo-oxadiazol-3-ylmethyl)benzoyl]-4-tetradecylpiperazine], the figures for the IC50 in experiment [2] and in experiment [5] were 18.7 µM and above 100 µM, respectively.

Regarding `CCCCCCCCCCCCCCN1CCN(C(=O)c2ccc(CCCc3noc(=O)[nH]3)cc2)CC1` [Example 9, 1-[4′-(4,5-dihydro-1,2,4(4H)-5-oxo-oxadiazol-3-ylpropyl)benzoyl]-4-tetradecylpiperazine], the figures for the IC50 in experiment [2] and in experiment [5] were 5.3 µM and above 100 µM, respectively.

In the case of `COc1ccc2c(c1)c(CC(=O)O)c(C)n2C(=O)c1ccc(Cl)cc1` [Indomethacin, indomethacin], the inhibition of edema in experiment [7] (intraperitoneal route, given one hour before carrageenan) is on record as 79%; in experiment [7] (oral route, at 5 hours after the injection of carrageenan) it was 16%. In experiment [1] (0.5 mg/ear), the “Edema inhibition (%)” value is 43.11 ± 8.79%.
